According to patent US11717508B2, “Compounds, compositions, and methods for inhibiting bacterial growth” (priority 2016, dated 2023):
“And” between values parts separate entries of the source, which are not always exact repeats. Equal values may be shown once. Read-outs that look alike come from different tables or passages of the source.

Key:
[1] = system: DosRST regulon; format: cell-based; settings: 40 μM, 6 days, >2-fold, p<0.05
[2] = system: CDC1551(ΔdosR) mutant; format: cell-based; settings: for Counts per million (CPM) / Counts per million (CPM) DosR_HC103A1 / Counts per million (CPM) DosR_HC103A2: DosR mutant treated with HC103A; for Counts per million (CPM): replicates 1, 2; for DosR DMSO/DosR HC103A Fold change / log2 Fold change: DosR mutant; for Counts per million (CPM) DosR_HC103A1: replicate 1; for Counts per million (CPM) DosR_HC103A2: replicate 2
[3] = gene MT0169 Rv0l60c PE, HC103A vs DMSO
[4] = gene MT0206 (Rv0196), HC103A compared to DMSO, upregulated
[5] = gene MT0207 (Rv0197), HC103A compared to DMSO, upregulated
[6] = gene MT0273 Rv0260c, HC103A vs DMSO
[7] = gene MT0585 (Rv0559c), HC103A compared to DMSO, upregulated
[8] = gene MT0586 (Rv0560c), HC103A compared to DMSO, upregulated
[9] = gene MT0587 (Rv0561c), HC103A compared to DMSO, upregulated
[10] = gene MT0808 (Rv0784), HC103A compared to DMSO, upregulated
[11] = gene MT0846 Rv0824c desA1, HC103A vs DMSO
[12] = gene MT0908 Rv0885, HC103A vs DMSO
[13] = gene MT0909 Rv0886 fprB, HC103A vs DMSO
[14] = gene MT1214 Rv1177 fdxC, HC103A vs DMSO
[15] = gene MT1297 (Rv1258c), HC103A compared to DMSO, upregulated

For O=C(Nc1cccc(O)c1)c1cccc(NC(=O)c2cccs2)c1 [HC103A, N-[3-[(3 hydroxyphenyl)carbamoyl]phenyl]thiophene-2-carboxamide], the “genes downregulated by compound that are also downregulated in the CDC1551(ΔdosR) mutant” value [1] was 76 genes, the “downregulated genes in CDC1551(ΔdosR) mutant treated with compound” value ([2]; 40 μM, 6 days, >2-fold, p<0.05) was 13 genes and the “Counts per million (CPM)” value ([2]; gene MT0169 Rv0l60c PE) was 32.4 CPM and 38.89 CPM. For the same compound, the “DosR DMSO/DosR HC103A Fold change” value [2, 3] was 0.4759, the “log2 Fold change” value [2, 3] was −1.071 and the “Counts per million (CPM) DosR_HC103A1” value ([2]; gene MT0206 (Rv0196)) was 286.4 CPM. The “Counts per million (CPM) DosR_HC103A2” value ([2]; gene MT0206 (Rv0196)) was 309 CPM, the “DosR DMSO/DosR HC103A Fold change” value [2, 4] was 6.59 and the “log2 Fold change” value [2, 4] was 2.72. For the same compound, the “Counts per million (CPM) DosR_HC103A1” value ([2]; gene MT0207 (Rv0197)) was 509.4 CPM, the “Counts per million (CPM) DosR_HC103A2” value ([2]; gene MT0207 (Rv0197)) was 528.3 CPM and the “DosR DMSO/DosR HC103A Fold change” value [2, 5] was 4.134. The “log2 Fold change” value [2, 5] was 2.047, the “Counts per million (CPM)” value ([2]; gene MT0273 Rv0260c) was 19.06 CPM and 17.95 CPM and the “DosR DMSO/DosR HC103A Fold change” value [2, 6] was 0.4609. The “log2 Fold change” value [2, 6] was −1.117, the “Counts per million (CPM) DosR_HC103A1” value ([2]; gene MT0585 (Rv0559c)) was 4,246.95 CPM and the “Counts per million (CPM) DosR_HC103A2” value ([2]; gene MT0585 (Rv0559c)) was 5,318.58 CPM. The “DosR DMSO/DosR HC103A Fold change” value [2, 7] was 5.18, the “log2 Fold change” value [2, 7] was 2.373 and the “Counts per million (CPM) DosR_HC103A1” value ([2]; gene MT0586 (Rv0560c)) was 8,065.19 CPM. The “DosR DMSO/DosR HC103A Fold change” value [2, 8] was 384.9, the “log2 Fold change” value [2, 8] was 8.588 and the “Counts per million (CPM) DosR_HC103A1” value ([2]; gene MT0587 (Rv0561c)) was 66.91 CPM. The “Counts per million (CPM) DosR_HC103A2” value ([2]; gene MT0587 (Rv0561c)) was 74.86 CPM, the “DosR DMSO/DosR HC103A Fold change” value [2, 9] was 2.044 and the “log2 Fold change” value [2, 9] was 1.031. The “Counts per million (CPM) DosR_HC103A1” value ([2]; gene MT0808 (Rv0784)) was 242.1 CPM, the “Counts per million (CPM) DosR_HC103A2” value ([2]; gene MT0808 (Rv0784)) was 193.9 CPM and the “DosR DMSO/DosR HC103A Fold change” value [2, 10] was 2.445. For the same compound, the “log2 Fold change” value [2, 10] was 1.29, the “Counts per million (CPM)” value ([2]; gene MT0846 Rv0824c desA1) was 2,264.39 CPM and 5,375.06 CPM and the “DosR DMSO/DosR HC103A Fold change” value [2, 11] was 0.4703. For the same compound, the “log2 Fold change” value [2, 11] was −1.088, the “Counts per million (CPM)” value ([2]; gene MT0908 Rv0885) was 2,165.30 CPM and 1,401.92 CPM and the “DosR DMSO/DosR HC103A Fold change” value [2, 12] was 0.3709. The “log2 Fold change” value [2, 12] was −1.431, the “Counts per million (CPM)” value ([2]; gene MT0909 Rv0886 fprB) was 412.7 CPM and 231.2 CPM and the “DosR DMSO/DosR HC103A Fold change” value [2, 13] was 0.453. For the same compound, the “log2 Fold change” value [2, 13] was −1.142, the “Counts per million (CPM)” value ([2]; gene MT1214 Rv1177 fdxC) was 704.9 CPM and 1,378.70 CPM and the “DosR DMSO/DosR HC103A Fold change” value [2, 14] was 0.4926. The “log2 Fold change” value [2, 14] was −1.021, the “Counts per million (CPM) DosR_HC103A1” value ([2]; gene MT1297 (Rv1258c)) was 106.4 CPM and the “Counts per million (CPM) DosR_HC103A2” value ([2]; gene MT1297 (Rv1258c)) was 137 CPM. For the same compound, the “DosR DMSO/DosR HC103A Fold change” value [2, 15] was 2.269, the “log2 Fold change” value [2, 15] was 1.182 and the “Counts per million (CPM)” value ([2]; gene MT1430 Rv1386 PE) was 63.3 CPM and 54.49 CPM. The “DosR DMSO/DosR HC103A Fold change” value ([2]; gene MT1430 Rv1386 PE, HC103A vs DMSO) was 0.4765.
